We go through four molecules from PMC4745783, “The HGF inhibitory peptide HGP-1 displays promising in vitro and in vivo efficacy for targeted cancer therapy” (Oncotarget, 2015).

One series has as its target T1, human full length HGF (Homo sapiens, UniProt P14210).
T1 construct: purchased Sino Biological Inc. 10463- NHAC-A
Put plainly: SPR affinity and kinetics. The format is binding. The settings on record: Biacore X100, CM5 chip. As for the experimental part:
(§1) To pre-assess the binding ability of peptide to HGF, peptides were coated on the fluorescence plates and incubated with HGF. The well coated with HGP-1 had at least 1500 times higher RFU than the one with SP-H1. […] In order to obtain a precise affinity data of HGP-1, the affinity and kinetics of HGP-1 against HGF was detected by SPR technique (Figure 3a). HGF was immobilized on the surface of a CM5 chip. […] Different concentrations of HGP-1 were injected over the surface of the chip followed by dissociation in buffer without peptide.
Kinetic (ka and kd) and affinity constant (KD) of soluble peptide were determined by surface plasmon resonance technique on a Biacore X100 instrument (GE healthcare). The research-grade CM5 sensor chip was activated following the process which was recommended in the amino coupling reagent kit. Human full length HGF was dissolved in PBS and diluted to a suitable concentration by 20 mM NaCOOH buffer (pH4.0) and immobilized on the chip, and 2000 resonance units were immobilized. The remaining reactive groups were inactivated by ethanolamine. The peptide was dissolved and diluted by HBS-EP ([…], 150 mM NaCl, 3 mM EDTA-Na2 and 0.005% P20, pH7.4). Samples composed of concentrations ranging from 0 to 100 μM of peptides were injected over the protein surface. […] Ka, Kd and KD were calculated by Biacore X100 Evaluation software.
Background: SPR reads the build-up and loss of mass on a sensor chip optically.

The test system of series [1] is A549 cells. The format is cell-based, human. As for the experimental part:
A549 cells were seeded in a 96-well plate at a density of 7000 cells per well. After overnight culture, cells were starved with serum free DMEM medium for 48 hours. […] After cultured for 4 days, the cell culture medium was changed with fresh medium containing 0.5 mg/mL 3-(4, 5-Dimethylthiazol-2-yl)-2, 5-diphenyltetrazolium bromide (MTT) solution for another 4 hours incubation at 37°C, in 5% CO2. Then, medium was removed and cells were lysed with dimethyl sulfoxide. The absorption of the solution in each well was measured at 490 nm on a VECTOR X4 Multilabel Plate Reader. IC50 value was also determined and calculated by GraphPad Prism 5.

For series [2], the system named is A549 cells. Put plainly: MTT cytotoxicity in HGF-free environment. As to conditions: 61.5 nM, 615 nM, 3.075 μM; 4-day, medium with 10% FBS; n = 4.
Procedure: MTT assay was also used to assess the cytotoxicity of peptides after 4-day incubation with peptides at different concentrations in the medium with 10% FBS. The cells were seeded in the 96-well plate at density of 2000 cells per well.
Series [3] concerns HGF. Put plainly: Binding of HGF to peptides displayed on bacteria, regular vs stringent washing, flow cytometry. On the set-up: species or system human. The settings on record: PE-A fluorescence; for binding to HGF in washed group: displayed on bacteria, washed (PBS pH 7.4, 3 times, 4°C, 10 min) vs regular washing. The procedure: Peptide physicochemical properties were preliminarily analyzed with bacteria clones. To evaluate the binding ability of peptides on the surface of bacteria to HGF, the PE-A fluorescence intensity of each clone with different wash procedures were determined by flow cytometry. Bacteria clones undergoing regular or stringent washing procedures after incubation with HGF were prepared. […] Bacteria clones were subcultured and induced as described before. Then, 10^7 bacteria of each clone were incubated with biotinylated HGF referring to sorting procedure. After incubating with HGF, bacteria were divided into two groups. The ‘original’ group was washed referring to sorting procedure, and the ‘washed’ group would have a tough washing. After centrifuged at 3000 × g for 5 minutes, bacteria in ‘washed’ group were resuspended by 1 mL phosphate buffered saline (PBS, PH 7.4) and inverted at 4°C for 10 minutes. The washing steps were repeated for 3 times. Samples from two groups were analyzed by flow cytometry.

Series [4] deals with HGF. Put plainly: ELISA, peptides coated on fluorescence plates and incubated with HGF. The format is binding, human. The settings on record: peptide coated, incubated with HGF. The procedure: as §1
(In general: In an ELISA, binding on a coated surface is turned into a signal by an enzyme label.)

Series [5] deals with MDA-MB-435s cells. Put plainly: Wound healing (scratch) migration assay with HGF. In kind it is cell-based, human. As to conditions: HGF 0.625 nM, 2-day treatment. The procedure:
MDA-MB-435s cells were plated on a 24-well plate (1 × 10^5 cells/well), grown to an 80–90% confluent cell monolayer, and serum-starved for 24 hours. Wounds were scratched gently with tip of a plastic pipet and washed twice with PBS. Subsequently, HGF (0.625 nM) alone or coupled with peptides at the concentrations of 61.5 nM and 615 nM were added into the wells for 2 days treatment. Each well was photographed at 10 × magnification with light microscope before and after peptide treatment. The cell migration capabilities were assessed by calculating the width alteration of the wound area by Photoshop. The percentage of cell migration followed the equation: Percent migration=width before treatment-width after treatment/width before treatment×100%

The test system of series [6] is MDA-MB-435s cells. Put plainly: Wound healing assay without HGF (non-specific inhibition). In kind it is cell-based, human. The settings on record: 61.5 nM and 615 nM; one day, medium with 10% FBS; n = 3. The procedure: Wound healing assay was applied to evaluate the inhibitory effect of peptides to cell migration after one-day incubation with peptides at different concentrations in medium with 10% FBS.

Series [7] deals with T2, Recombinant human full length HGF (human, UniProt P14210 32-728). As to the kind of experiment: cell-based or functional assay.
T2 sequence (P14210 32-728): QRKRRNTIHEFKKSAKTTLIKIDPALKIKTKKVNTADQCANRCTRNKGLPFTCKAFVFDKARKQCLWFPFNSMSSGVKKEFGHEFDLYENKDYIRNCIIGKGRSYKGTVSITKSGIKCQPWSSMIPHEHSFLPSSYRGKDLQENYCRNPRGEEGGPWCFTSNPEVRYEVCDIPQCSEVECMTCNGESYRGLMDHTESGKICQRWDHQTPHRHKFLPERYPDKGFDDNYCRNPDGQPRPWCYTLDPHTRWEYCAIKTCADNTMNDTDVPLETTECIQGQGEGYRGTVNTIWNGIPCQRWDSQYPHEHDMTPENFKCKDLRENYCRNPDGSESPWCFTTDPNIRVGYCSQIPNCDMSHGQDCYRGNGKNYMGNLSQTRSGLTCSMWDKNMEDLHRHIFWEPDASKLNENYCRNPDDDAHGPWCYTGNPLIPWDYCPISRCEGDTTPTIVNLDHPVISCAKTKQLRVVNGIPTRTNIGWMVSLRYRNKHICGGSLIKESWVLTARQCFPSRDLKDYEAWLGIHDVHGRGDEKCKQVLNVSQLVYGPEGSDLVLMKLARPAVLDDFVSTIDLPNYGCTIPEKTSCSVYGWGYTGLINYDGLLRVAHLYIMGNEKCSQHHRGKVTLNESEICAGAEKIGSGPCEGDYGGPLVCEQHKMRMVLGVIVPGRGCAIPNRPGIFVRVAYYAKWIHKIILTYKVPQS
For series [8], the target named is T2, Recombinant human full length HGF. As to the kind of experiment: SPR; Biacore X100; HGF immobilised on a CM5 chip by amine coupling (2000 RU); peptide 0 to 100 μM in HBS-EP pH 7.4, 30 μL/min, 2 minutes injection, 8 minutes dissociation. The settings on record: both partners purified.

“Also recorded” adds a separate entry of the source. Where no end group is shown, it is not given here. The star is where a group is joined. FITC = O=C1OC2(c3ccc(O)cc3Oc3cc(O)ccc32)c2ccc(NC(=S)*)cc21

T1 sequence (P14210 32-728): as above

With HRGLKWEIVPWSGCG [HGP-1], at human full length HGF (HBS-EP pH 7.4, 30 μL/min, 2 min injection, read-out: ka), the kon is 698 M⁻¹ s⁻¹. Also, at human full length HGF (HBS-EP pH 7.4, 8 min dissociation, printed kb), the kb is 0.001243 s⁻¹. For the same molecule, in the series on A549 cells [1] (48 h), inhibition was half-maximal at 496 µM (IC50). Further, the “cytotoxicity to cell proliferation in HGF-free environment” value in the series with A549 cells [2] is on record as “did not exhibit detectable cytotoxicity”.
With TLYEVDLREWCAGIVG [HGP-2], the “binding to HGF in washed group” value in the series with HGF [3] was “had an obvious reduction”. In the series on HGF [4], the “RFU relative to SP-H1 coated well” value is recorded as 700 times. Moreover, the “inhibitory effect on cell proliferation” value with A549 cells [1] (61.5 nM, 615 nM, 3.075 μM, HGF, 4-day treatment, n = 3) is reported as “inhibited”. In addition, in the series with MDA-MB-435s cells [5], the “inhibitory effect on cell migration” value is listed as “inhibited; also recorded: displayed a similar effect on MDA-MB-435s”. Also, the “inhibitory effect on migration without HGF” value in the series on MDA-MB-435s cells [6] is “no obvious inhibitory effect”.
In the case of TYFTWWELSPGCEEH [HGP-3], the “binding capability to HGF when displayed on the surface of bacteria, compared with HGP-2” value with HGF [3] (flow cytometry) is “higher binding capability to HGF compared with HGP-2”. Also, in the series on HGF [3], the “binding to HGF in washed group” value is on record as “bound to their targets as well as the regular ones”.

B1: HGF binding peptide-1, soluble synthetic peptide (peptide)
peptide: {FITC}-HRGLKWEIVPWSGCG
notes: the peptide of bacteria clone 1, synthesized free of bacteria; The methods say in general that FITC was labeled at the N-terminal of the peptides; also called HGP-1; FITC-labeled HGP-1; source: synthetic peptide (Shanghai Bootech Bioscience & Technology Co., Ltd.)
In the case of B1, in [7], the “IC50 of inhibition of HGF (1 nM)-mediated A549 proliferation, MTT assay, 4 days” value came to 496 µM. In [8], the Kd – broadly, the free concentration of one partner at which half of the binding sites on the other are occupied at equilibrium, for simple one-to-one binding – amounted to 1.73 µM; the koff – broadly, the rate constant with which the complex falls apart – came to 0.00124 s⁻¹; the kon is 698 M⁻¹ s⁻¹.
